Measured values published in publication PMC9199881 (Clinical and Translational Science, 2022).

Key:
[1] = system: cytochrome P450 3A4 (CYP3A4); details: enzymatic studies; cited from earlier work
[2] = system: mouse immune thrombocytopenia model; details: cited from earlier work
[3] = system: healthy subjects; test: ECG by timepoint analysis and categorical outliers, Part B; type: in vivo, human
[4] = system: other CYP enzymes; details: enzymatic studies; cited from earlier work
[5] = system: healthy subjects; test: Safety assessment; type: in vivo, human
[6] = system: human ether-a-go-go-related gene (hERG) current; details: 10 μM; hERG-transfected HEK293 cells; ref unpublished preclinical safety studies; cited from earlier work
[7] = Plasma pharmacokinetics, Part B; details: for AUC(0-inf): AUC0–∞
[8] = system: spontaneous canine pemphigus foliaceus; details: cited from earlier work
[9] = cited from earlier work
[10] = Part B, 400 mg rilzabrutinib plus ritonavir
[11] = Part B, rilzabrutinib 400 mg + ritonavir 100 mg, first column of the group
[12] = Part B, rilzabrutinib 400 mg + ritonavir 100 mg, second column of the group
[13] = human, in vivo, 400 mg, Mean (SD), 400 mg single dose alone
[14] = human, in vivo, 400 mg, Median (range), 400 mg single dose alone

CC(C)(/C=C(\C#N)C(=O)N1CCC[C@@H](n2nc(-c3ccc(Oc4ccccc4)cc3F)c3c(N)ncnc32)C1)N1CCN(C2COC2)CC1 [Rilzabrutinib, rilzabrutinib]
interaction with CYP3A4 [1]: substrate for and weak inhibitor | anti-inflammatory effects [2]: rapid and significant anti‐inflammatory effects | effect on HR ([3]; Part B): no effect on HR | effect on cardiac conduction (PR and QRS intervals) ([3]; Part B, at the studied doses): no clinically relevant effect | treatment-emergent T-wave or U-wave morphology changes ([3]; Part B, following 400 mg rilzabrutinib): one subject with a flat T wave at two timepoints | effects on ECG parameters, including the QTc interval ([3]; therapeutic and supratherapeutic (with ritonavir) exposures): no clinically relevant effects | interaction with other CYP enzymes [4]: no significant interaction | serious TEAEs or deaths ([5]; Part B): no serious TEAEs or deaths | Treatment-related TEAE: Abdominal pain, n (%) ([5]; Part B, 400 mg alone): 3 (9.4) n (%) | Treatment-related TEAE: Diarrhea, n (%) ([5]; Part B, 400 mg alone): 9 (28.1) n (%) | Treatment-related TEAE: Dizziness, n (%) ([5]; Part B, 400 mg alone): 0 n (%) | Treatment-related TEAE: Dysgeusia, n (%) ([5]; Part B, 400 mg alone): 1 (3.1) n (%) | Treatment-related TEAE: Frequent bowel movements, n (%) ([5]; Part B, 400 mg alone): 0 n (%) | Treatment-related TEAE: Gastrointestinal disorders, n (%) ([5]; Part B, 400 mg alone): 13 (40.6) n (%) | Treatment-related TEAE: Headache, n (%) ([5]; Part B, 400 mg alone): 1 (3.1) n (%) | Treatment-related TEAE: Herpex simplex, n (%) ([5]; Part B, 400 mg alone): 0 n (%) | Treatment-related TEAE: Infections and infestations, n (%) ([5]; Part B, 400 mg alone): 0 n (%) | Treatment-related TEAE: Lethargy, n (%) ([5]; Part B, 400 mg alone): 0 n (%) | Treatment-related TEAE: Nervous system disorders, n (%) ([5]; Part B, 400 mg alone): 2 (6.3) n (%) | Treatment-related TEAE: Somnolence, n (%) ([5]; Part B, 400 mg alone): 0 n (%) | Treatment-related TEAE: Subjects with ≥1 TEAE, n (%) ([5]; Part B, 400 mg alone): 14 (43.8) n (%) | Treatment-related TEAE: Vomiting, n (%) ([5]; Part B, 400 mg alone): 0 n (%) | incidence of treatment-related TEAEs ([5]; Part B, 400 mg alone): 43.8% | participants with diarrhea ([5]; Part B, 400 mg alone): 28.1% | incidence of treatment-related TEAEs [5, 10]: 44.1% | participants with diarrhea [5, 10]: 35.3% | moderate (grade 2) rilzabrutinib related TEAEs ([5]; Part B, nausea with 400 mg and diarrhea with 400 mg plus 100 mg ritonavir, in two participants): two moderate (grade 2) rilzabrutinib related TEAEs | Treatment-related TEAE: Abdominal pain, n (%) [5, 11]: 0 n (%) | Treatment-related TEAE: Diarrhea, n (%) [5, 11]: 12 (35.3) n (%) | Treatment-related TEAE: Dizziness, n (%) [5, 11]: 0 n (%) | Treatment-related TEAE: Dysgeusia, n (%) [5, 11]: 2 (5.9) n (%) | Treatment-related TEAE: Frequent bowel movements, n (%) [5, 11]: 1 (2.9) n (%) | Treatment-related TEAE: Gastrointestinal disorders, n (%) [5, 11]: 14 (41.2) n (%) | Treatment-related TEAE: Headache, n (%) [5, 11]: 0 n (%) | Treatment-related TEAE: Herpex simplex, n (%) [5, 11]: 1 (2.9) n (%) | Treatment-related TEAE: Infections and infestations, n (%) [5, 11]: 1 (2.9) n (%) | Treatment-related TEAE: Lethargy, n (%) [5, 11]: 0 n (%) | Treatment-related TEAE: Nervous system disorders, n (%) [5, 11]: 3 (8.8) n (%) | Treatment-related TEAE: Somnolence, n (%) [5, 11]: 2 (5.9) n (%) | Treatment-related TEAE: Vomiting, n (%) [5, 11]: 0 n (%) | Treatment-related TEAE: Abdominal pain, n (%) [second column of the group] [5, 12]: 0 n (%) | Treatment-related TEAE: Diarrhea, n (%) [second column of the group] [5, 12]: 12 n (%) | Treatment-related TEAE: Dizziness, n (%) [second column of the group] [5, 12]: 0 n (%) | Treatment-related TEAE: Dysgeusia, n (%) [second column of the group] [5, 12]: 2 n (%) | Treatment-related TEAE: Headache, n (%) [second column of the group] [5, 12]: 0 n (%) | Treatment-related TEAE: Herpex simplex, n (%) [second column of the group] [5, 12]: 1 n (%) | Treatment-related TEAE: Lethargy, n (%) [second column of the group] [5, 12]: 0 n (%) | Treatment-related TEAE: Nausea, n (%) [second column of the group] [5, 12]: 4 n (%) | Treatment-related TEAE: Somnolence, n (%) [second column of the group] [5, 12]: 2 n (%) | Treatment-related TEAE: Vomiting, n (%) [second column of the group] [5, 12]: 0 n (%) | changes in clinical chemistry ([5]; at the studied doses): No clinically meaningful changes | safety profile ([5]; at the studied doses): acceptable safety profile | signal on hERG current [6]: no signal | Tmax, Median (range) ([7]; 400 mg single dose alone): 2.1 (0.6–4.1) h | AUC(0-t) ([7]; human, in vivo, 400 mg, AUC0–last, Mean (SD), 400 mg single dose alone): 455 ng·h/mL | AUC(0-inf) [7, 13]: 454 ng·h/mL | AUC(0-inf) [7, 14]: 312 ng·h/mL | Cmax [7, 13]: 144 ng/mL | Cmax [7, 14]: 102 ng/mL | Tmax [7, 13]: 2.1 h | Tmax [7, 14]: ~2.1 h | half-life ([7]; human, in vivo, 400 mg, t 1/2, Mean (SD), 400 mg single dose alone): 3.9 h | half-life ([7]; human, in vivo, 400 mg, t 1/2, Median (range), 400 mg single dose alone): 3.1 h | increase in rilzabrutinib Cmax with ritonavir ([7]; rilzabrutinib 400 mg + ritonavir 100 mg BID vs 400 mg alone): 5 fold | anti-inflammatory effects [8]: rapid and significant anti‐inflammatory effects | accumulation after chronic multiple dosing ([9]; 400 mg b.i.d.): minimal accumulation | delay of absorption by a moderate fat meal ([9]; healthy volunteers): ~ 1 h
